Read-outs that look alike come from different tables or passages of the source.
Details: disulfide bond, 20-membered ring, AgOTf/anisole/TFA, then DMSO/HCl, 50% DMSO-1N HCl, 2 steps

With `CC[C@H](C)[C@@H]1NC(=O)[C@@H](N)CSSC[C@@H](C(=O)O)NC(=O)[C@@H](c2ccccc2)NC(=O)[C@H](Cc2c[nH]cn2)NC(=O)[C@H](CC(=O)O)NC1=O` [C*IDHdPhgC*] the ring closure, yield after HPLC (from H-Cys(Acm)-Ile-Asp-His-dPhg-Cys(Acm)-OH) was 37%.

`CC[C@H](C)[C@@H]1NC(=O)[C@@H](N)CSSC[C@@H](C(=O)O)NC(=O)[C@H](CC(C)C)NC(=O)[C@H](CCc2ccccc2)NC(=O)[C@H](CC(=O)O)NC1=O` [C*IDHphLC*] showed a ring closure, yield after HPLC (from H-Cys(Acm)-Ile-Asp-Hph-Leu-Cys(Acm)-OH) of 38%.

Work on `CC[C@H](C)[C@@H]1NC(=O)[C@@H](N)CSSC[C@@H](C(=O)O)NC(=O)[C@H](CC(C)C)NC(=O)[C@H](c2ccccc2)NC(=O)[C@H](CC(=O)O)NC1=O` [C*IDPhgLC*] yielded a ring closure, yield after HPLC (from H-Cys(Acm)-Ile-Asp-Phg-Leu-Cys(Acm)-OH) of 48%.

`CC[C@H](C)[C@@H]1NC(=O)[C@@H](N)CSSC[C@@H](C(=O)O)NC(=O)[C@H](CC(C)C)NC(=O)[C@H](C(C)(C)C)NC(=O)[C@H](CC(=O)O)NC1=O` [C*IDTleLC*] showed a ring closure, yield after HPLC (from H-Cys(Acm)-Ile-Asp-Tle-Leu-Cys(Acm)-OH) of 23%.

`CC[C@H](C)[C@@H]1NC(=O)[C@@H](N)CSSC[C@@H](C(=O)O)NC(=O)[C@H](CC(C)C)NC(=O)[C@H](Cc2c[nH]c3ccccc23)NC(=O)[C@H](CC(=O)O)NC1=O` [C*IDWLC*] showed a ring closure, yield after HPLC (from H-Cys(Acm)-Ile-Asp-Trp-Leu-Cys(Acm)-OH) of 47%.

In the case of `CC[C@H](C)[C@@H]1NC(=O)[C@@H](N)CSSC[C@@H](C(=O)O)NC(=O)[C@H](CC(C)C)NC(=O)[C@@H](Cc2c[nH]cn2)NC(=O)[C@H](CC(=O)O)NC1=O` [C*IDdHLC*], the ring closure, yield after HPLC (from H-Cys(Acm)-Ile-Asp-dHis-Leu-Cys(Acm)-OH) was 74%.

`CC[C@H](C)[C@@H]1NC(=O)[C@@H](N)CSSC[C@@H](C(=O)O)NC(=O)[C@H](CC(C)C)NC(=O)[C@@H](c2ccccc2)NC(=O)[C@H](CC(=O)O)NC1=O` [C*IDdPhgLC*] showed a ring closure, yield after HPLC (from H-Cys(Acm)-Ile-Asp-dPhg-Leu-Cys(Acm)-OH) of 8%.

`CC[C@H](C)[C@@H]1NC(=O)[C@@H](N)CSSC[C@@H](C(=O)O)NC(=O)[C@H](CC(C)C)NC(=O)[C@H](Cc2c[nH]cn2)NC(=O)[C@H](CCC(=O)O)NC1=O` [C*IEHLC*] showed a ring closure, yield after HPLC (from H-Cys(Acm)-Ile-Glu-His-Leu-Cys(Acm)-OH) of 71%.

`CC[C@H](C)[C@@H]1NC(=O)[C@@H](N)CSSC[C@@H](C(=O)O)NC(=O)[C@H](CC(C)C)NC(=O)[C@H](Cc2c[nH]cn2)NC(=O)[C@H](CCO)NC1=O` [C*IHseHLC*] gave a ring closure, yield after HPLC (from H-Cys(Acm)-Ile-Hse-His-Leu-Cys(Acm)-OH) of 56%.

Work on `CC[C@H](C)[C@@H]1NC(=O)[C@@H](N)CSSC[C@@H](C(=O)O)NC(=O)[C@H](CC(C)C)NC(=O)[C@H](Cc2c[nH]cn2)NC(=O)[C@H](CCS(C)(=O)=O)NC1=O` [C*IMet(O2)HLC*] yielded a ring closure, yield after HPLC (from H-Cys(Acm)-Ile-Met(O2)-His-Leu-Cys(Acm)-OH) of 68%.

Work on `CC[C@H](C)[C@@H]1NC(=O)[C@@H](N)CSSC[C@@H](C(=O)O)NC(=O)[C@H](CC(C)C)NC(=O)[C@H](Cc2c[nH]cn2)NC(=O)[C@H](CC(N)=O)NC1=O` [C*INHLC*] yielded a ring closure, yield after HPLC (from H-Cys(Acm)-Ile-Asn-His-Leu-Cys(Acm)-OH) of 85%.

`CC[C@H](C)[C@@H]1NC(=O)[C@@H](N)CSSC[C@@H](C(N)=O)NC(=O)[C@H](CC(C)C)NC(=O)[C@H](Cc2c[nH]cn2)NC(=O)[C@H](CC(N)=O)NC1=O` [C*INHLC*—NH2] gave a ring closure, yield after HPLC (from H-Cys(Acm)-Ile-Asn-His-Leu-Cys(Acm)-NH2) of 18%.

Compound `CC[C@H](C)[C@@H]1NC(=O)[C@@H](N)CSSC[C@@H](C(=O)O)NC(=O)[C@H](CC(C)C)NC(=O)[C@H](Cc2c[nH]cn2)NC(=O)[C@H](COC)NC1=O` [C*IS(OMe)HLC*] has a ring closure, yield after HPLC (from H-Cys(Acm)-Ile-Ser(OMe)-His-Leu-Cys(Acm)-OH) of 52%.

With `CC[C@H](C)[C@@H]1NC(=O)[C@@H](N)CSSC[C@@H](C(=O)O)NC(=O)[C@H](CC(C)C)NC(=O)[C@H](Cc2c[nH]cn2)NC(=O)[C@H](Cc2ccc(O)cc2)NC1=O` [C*IYHLC*] the ring closure, yield after HPLC (from H-Cys(Acm)-Ile-Tyr-His-Leu-Cys(Acm)-OH) was 52%.

`CC(C)C[C@@H]1NC(=O)[C@H](Cc2c[nH]cn2)NC(=O)[C@H](CC(=O)O)NC(=O)[C@H](c2ccccc2)NC(=O)[C@@H](N)CSSC[C@@H](C(=O)O)NC1=O` [C*PhgDHLC*] showed a ring closure, yield after HPLC (from H-Cys(Acm)-Phg-Asp-His-Leu-Cys(Acm)-OH) of 64%.

In the case of `CC(C)C[C@@H]1NC(=O)[C@H](Cc2c[nH]cn2)NC(=O)[C@H](CC(=O)O)NC(=O)[C@@H]2Cc3ccccc3CN2C(=O)[C@@H](N)CSSC[C@@H](C(=O)O)NC1=O` [C*TicDHLC*], the ring closure, yield after HPLC (from H-Cys(Acm)-Tic-Asp-His-Leu-Cys(Acm)-OH) was 30%.

`CC(C)C[C@@H]1NC(=O)[C@H](Cc2c[nH]cn2)NC(=O)[C@H](CC(=O)O)NC(=O)[C@H](C(C)(C)C)NC(=O)[C@@H](N)CSSC[C@@H](C(=O)O)NC1=O` [C*TleDHLC*] gave a ring closure, yield after HPLC (from H-Cys(Acm)-Tle-Asp-His-Leu-Cys(Acm)-OH) of 69%.

Reference: US6511961B1, “Cyclic peptides and medicinal use thereof” (Toray Industries, Inc., priority 1997, dated 2003)
